# According to ChEMBL document CHEMBL1275470, “Susceptibility testing and molecular classification of Paecilomyces spp” (2008):
# Starred links: 1 amine or outer side, 2 acyl side, 3 side chain; linkers in the order of their positions; H or OH if unused. Positions of bridges follow the written chain, without caps; N, C: chain ends. Non-standard residues stand in square brackets, D forms with d. Residues, ends and D or L forms follow the SMILES beside them. *: point of attachment. hTyr(3S-OH,4S-OH,3'-OSO3H) = N[C@H](C(=O)O)[C@H](O)[C@@H](O)c1ccc(O)c(OS(=O)(=O)O)c1; pTerphenylCO(4''-OnC5H11) = CCCCCOc1ccc(-c2ccc(-c3ccc(C(=O)*)cc3)cc2)cc1; Orn(4R-OH,5R-OH) = O=C([C@H](C[C@@H](O)[C@@H](O)N[*:3])N[*:1])[*:2]; hTyr(3S-OH,4S-OH) = N[C@H](C(=O)O)[C@H](O)[C@@H](O)c1ccc(O)cc1; Pro(3S-OH,4S-Me) = C[C@H]1CN[C@H](C(=O)O)[C@H]1O; X1 = CCCCCOc1ccc(-c2cc(-c3ccc(C(=O)*)cc3)no2)cc1; Gln(3R-OH) = NC(=O)C[C@@H](O)[C@H](N)C(=O)O; Hyp = O=C(O)[C@@H]1C[C@@H](O)CN1
# Tests used:
# Paecilomyces variotii = assay: Antimicrobial activity against Paecilomyces variotii by microdilution method; assay type: functional
# Paecilomyces lilacinus = assay: Antimicrobial activity against Paecilomyces lilacinus by microdilution method; assay type: functional; conditions: Purpureocillium lilacinum
SMILES,MIC (Paecilomyces variotii),MIC (Paecilomyces lilacinus)
"CCCCCOc1ccc(-c2ccc(-c3ccc(C(=O)N[C@H]4C[C@@H](O)[C@@H](O)NC(=O)[C@@H]5[C@@H](O)[C@@H](C)CN5C(=O)[C@H]([C@@H](C)O)NC(=O)[C@H]([C@H](O)[C@@H](O)c5ccc(O)cc5)NC(=O)[C@@H]5C[C@@H](O)CN5C(=O)[C@H]([C@@H](C)O)NC4=O)cc3)cc2)cc1 [ANIDULAFUNGIN] ({pTerphenylCO(4''-OnC5H11)}-[Orn(4R-OH,5R-OH)]T[Hyp][hTyr(3S-OH,4S-OH)]T[Pro(3S-OH,4S-Me)]; lactam 1-C)",0.016 µg/mL,27.1 µg/mL
CCC(C)n1ncn(-c2ccc(N3CCN(c4ccc(OCC5COC(Cn6cncn6)(c6ccc(Cl)cc6Cl)O5)cc4)CC3)cc2)c1=O (stereo not drawn) [ITRACONAZOLE],0.06 µg/mL,13.4 µg/mL
CC[C@@H]([C@H](C)O)n1ncn(-c2ccc(N3CCN(c4ccc(OC[C@@H]5CO[C@@](Cn6cncn6)(c6ccc(F)cc6F)C5)cc4)CC3)cc2)c1=O [POSACONAZOLE],0.04 µg/mL,0.28 µg/mL
C[C@@H](c1ncncc1F)[C@](O)(Cn1cncn1)c1ccc(F)cc1F [VORICONAZOLE],4.18 µg/mL,0.45 µg/mL

# Continued, values first:
MIC (Paecilomyces variotii),MIC (Paecilomyces lilacinus),SMILES
4.89 µg/mL,0.73 µg/mL,C[C@@H](c1nc(-c2ccc(C#N)cc2)cs1)[C@](O)(Cn1cncn1)c1ccc(F)cc1F [RAVUCONAZOLE]
0.44 µg/mL,27.9 µg/mL,CC[C@H](C)C[C@H](C)CCCCCCCCC(=O)N[C@H]1C[C@@H](O)[C@@H](NCCN)NC(=O)[C@@H]2[C@@H](O)CCN2C(=O)[C@H]([C@H](O)CCN)NC(=O)[C@H]([C@H](O)[C@@H](O)c2ccc(O)cc2)NC(=O)[C@@H]2C[C@@H](O)CN2C(=O)[C@H]([C@@H](C)O)NC1=O [CASPOFUNGIN]
1.53 µg/mL,0.51 µg/mL,CN(C/C=C/C#CC(C)(C)C)Cc1cccc2ccccc12 [TERBINAFINE]
0.018 µg/mL,25.6 µg/mL,"CCCCCOc1ccc(-c2cc(-c3ccc(C(=O)N[C@H]4C[C@@H](O)[C@@H](O)NC(=O)[C@@H]5[C@@H](O)[C@@H](C)CN5C(=O)[C@H]([C@H](O)CC(N)=O)NC(=O)[C@H]([C@H](O)[C@@H](O)c5ccc(O)c(OS(=O)(=O)O)c5)NC(=O)[C@@H]5C[C@@H](O)CN5C(=O)[C@H]([C@@H](C)O)NC4=O)cc3)no2)cc1 [MICAFUNGIN] (X1-[Orn(4R-OH,5R-OH)]T[Hyp][hTyr(3S-OH,4S-OH,3'-OSO3H)][Gln(3R-OH)][Pro(3S-OH,4S-Me)]; lactam 1-C)"
0.04 µg/mL,29.6 µg/mL,C[C@@H]1[C@H](O)[C@@H](C)/C=C/C=C/C=C/C=C/C=C/C=C/C=C/[C@H](O[C@@H]2O[C@H](C)[C@@H](O)[C@H](N)[C@@H]2O)C[C@@H]2O[C@](O)(C[C@@H](O)C[C@@H](O)[C@H](O)CC[C@@H](O)C[C@@H](O)CC(=O)O[C@H]1C)C[C@H](O)[C@H]2C(=O)O [AMPHOTERICIN B]
